Results: PMC8975272, “Novel glucagon-like peptide-1 analogue exhibits potency-driven G-protein biased agonism with promising effects on diabetes and diabetic dry eye syndrome” (Bioengineered, 2022)

How the values were obtained:
GLP-1R [1] = target: T1, GLP-1R (Homo sapiens, UniProt P43220); experiment: GLP-1R binding affinity; parameters: expressed in transfected cells; details: compared to Semaglutide
INS-1 832/3 cells = experiment: Insulin release after overnight incubation, INS-1 832/3 cells; format: cell-based; details: 16 h (overnight), range of concentrations, 11 mM glucose, HTRF
Description: (§1) Mouse islets (10/well) were incubated in triplicate for each condition and treatment. Islets were preincubated for 1 hour in 3 mM glucose KRH buffer prior to secretion assay (30 min) in 3 mM or 11 mM glucose with vehicle or 100 nM SM102 or Semaglutide. The secretion medium was then collected to measure the insulin and proinsulin concentrations using an insulin HTRF kit (Cisbio Bioassays). INS-1 832/3 cells were treated with the indicated concentrations of SM102 or Semaglutide for 16 h in complete RPMI1640 medium at 11 mM glucose. A sample of supernatant was collected and analyzed for insulin content by HTRF.

diabetic DES mice = experiment: Chronic administration study in diabetic DES mice; format: in vivo, mouse; details: for increase in number of conjunctival goblet cells vs control mice: PAS staining
Description: DES in db/db mice was induced by twice daily administration of 5 μL of 0.2% benzalkonium chloride (Sigma-Aldrich) for 7 days. All diabetic DES mice were divided into vehicle group, SM102 treatment groups (1, 3 and 9 nmol/kg), Semaglutide treatment group (15 nmol/kg), and dulaglutide (1.5 nmol/kg) (n = 8 per group; 4 male, 4 female). The drugs were injected subcutaneously into the neck region of the animals on every other day for 4 weeks.
The mouse’s lower eyelid was gently pulled downward, and a line with a 1 mm length of the phenol red cotton thread was placed on the upper part of the palpebral conjunctiva for 15 seconds near the inner part about one-third of the distance from the outer corner of the eyelid. The length of the colored part of the phenol red thread was recorded as the tear secretion. 1 μL of 0.1% liquid fluorescein sodium was instilled into the conjunctival sac followed by three blinks, and tear breakup time (BUT) was recorded in seconds.
[…] The levels of interleukin-6 (IL-6), interleukin-1β (IL-1β), tumor necrosis factor-α (TNF-α), transforming growth factor β1 (TGF-β1) and malondialdehyde (MDA) as well as superoxide dismutase (SOD) activity in the supernatant were measured using appropriate ELISA kits brought from R&D company (USA). The expression levels of p38/p-p38, JNK/pJNK and ERK/p-ERK were analyzed by Western blot methods as previously reported.
Hematoxylin and eosin (H&E) staining were performed as described below: Corneas were fixed in 4% formalin. After dehydration, the specimens were embedded in paraffin and serial sections of 6 μm thickness were cut and stained with a hematoxylin-eosin reagent. Periodic Acid–Schiff (PAS) staining were performed as described below: Conjunctiva was fixed in 4% formalin. After dehydration, the specimens were embedded in paraffin and serial sections of 6 μm thickness were cut and stained with 0.5% PAS staining. The number of positively stained cup-shaped cells in the stained conjunctival sections was counted using image-Pro Plus6.0 (MediaCybernetics, USA).

GLP-1R [2] = target: T1, GLP-1R; experiment: PathHunter β-arrestin-2 recruitment; format: cell-based; parameters: host or cells: CHO-K1 (PathHunter); details: SM102 vs Semaglutide; 30 min at 37°C, luminescence
Description: (§2) HEK293 cells stably expressing human GLP-1R (hGLP-1 R) (generated in-house using HEK293 cell line purchased from ATCC, Cat# CRL-1573) were maintained in Dulbecco’s Modified Eagle Medium (DMEM, Gibco, 11,054,020) with 10% fetal bovine serum (FBS, Gibco, 10,099,133 C), 1% penicillin/streptomycin (Gibco, 10,378,016) and 1 mg/mL G418 (Gibco, 10,131,035). Wild-type INS-1 832/3 cells, or INS-1 832/3 cells lacking endogenous GLP-1 R (generated in-house using INS-1 832/3 cell line purchased from NTCC, Cat# CVCL_ZL55) were maintained in RPMI-1640 (Gibco, 22,400,071) with 1 mM sodium pyruvate (Gibco, 11,360,070), 50 μM β-mercaptoethanol (Gibco, 21,985,023), 10% FBS, and 1% penicillin/streptomycin. PathHunter CHO-K1-βarr2-EAGLP1R cells (DiscoverX) were maintained in F12 medium (Gibco, 11,320,033) with 10% FBS, 1% penicillin/streptomycin, 1 mg/mL G418 and 250 μg/mL hygromycin (Gibco, 10,687,010).
PathHunter CHO-K1-βarr2-EA-GLP-1 R cells were stimulated with agonist for 30 min at 37°C in Ham’s F12 medium (Gibco, 11,765,054) without FBS. At the end of the incubation period cells were lysed by addition of PathHunter detection reagents and luminescent signal was subsequently recorded from each well.

GLP-1R [3] = target: T1, GLP-1R; experiment: GLP-1R endocytosis, high content imaging; format: cell-based; parameters: expressed in transfected cells; details: no clear difference in kinetics between the two ligands
GLP-1R [4] = target: T1, GLP-1R; experiment: cAMP accumulation (HTRF); format: cell-based; parameters: expressed in transfected cells
Description: as §2
HEK293 stably expressing hGLP-1 R cells were stimulated with agonist for 30 min at 37°C in serum-free medium (Gibco, 12,753,018). cAMP was determined at the end of the incubation period by homogenous time resolved fluorescence (HTRF; cAMP Dynamic 2 kit, Cisbio) using a Molecular Devices iD5 plate reader.

[5] = Pharmacokinetics in CD-1 mice; format: in vivo, mouse
hGLP-1 R = target: T2, hGLP-1 R (Homo sapiens, UniProt P43220); experiment: GLP-1R recycling assay (exendin-4-TMR uptake); format: cell-based; details: 100 nM agonist 1 hour, washout, exendin-4-TMR 1 or 3 hours; compared to Semaglutide
T2 construct: expressed in transfected cells; host or cells: INS-1 832/3 (abstract: 832/13) rat insulinoma cells
Description: INS-1 hGLP-1 R cells were seeded the day before the assay in 96-well imaging plates. Cells were washed twice with PBS, then stimulated with 100 nM of respective agonist in complete media, with an equal number of wells kept as vehicles. Following stimulation of the cells for 1 hour, they were washed twice with PBS and labeled with exendin-4-TMR13 for either 1 hour or 3 hours, washed again with PBS, and imaged via high content microscopy.

mouse pancreatic islets = experiment: Static acute insulin secretion, mouse islets; format: cell-based
Description: Mice were euthanized by cervical dislocation and pancreatic islets isolated by collagenase digestion as previously described and cultured in RPMI 1640 medium, 11 mM glucose, supplemented with 10% (v/v) FBS plus penicillin (100 units/mL), and streptomycin (0.1 mg/mL) at 37°C in an atmosphere of humidified air (95%) and CO2 (5%).
as §1, with “Islets were preincubated for 1 hour in 3 mM glucose KRH buffer prior to secretion assay (30 min) in 3 mM or 11 mM glucose with vehicle or 100 nM SM102 or Semaglutide.” left out

db/db mice = experiment: Chronic administration study in db/db mice; format: in vivo, mouse
Description: The diabetic db/db mice (half male and half female, 8–12 weeks, body weight- 40-50 g) were brought from Cavens Company Ltd. (Changzhou) and housed in individual ventilated cages with free access to food and water and maintained on a 12-hour light/dark cycle. Animals were acclimatized for 3 days. On day 0, each animal was weighed using a digital weighing balance. Blood was collected by retro-orbital plexus puncture. Blood glucose level was measured using a hand-held blood glucose meter (Johnson & Johnson) and %HbA1c was measured using auto fluorescence immunoanalyzer.
Animals were divided into treatment groups (n = 8 per group; 4 male, 4 female) with matched baseline %HbA1c levels (mean 7.3%). Vehicle, SM102 (1, 3 and 9 nmol/kg), Semaglutide (15 nmol/kg) were subcutaneously injected into the neck region of the animals on every other day for 4 weeks.
Body weight and food intake were monitored serially. On day 29 of the study, 24 h following the last dose, blood was collected for measurement of %HbA1c, triglycerides, insulin, C-peptide and glucagon. The function of β-cell was assessed via calculating the […] from blood concentrations of glucose and insulin.

[6] = all 3 doses of SM102, Western blot, p < 0.05
[7] = corneal homogenates, 4 weeks, ELISA

T1 sequence (P43220 24-463): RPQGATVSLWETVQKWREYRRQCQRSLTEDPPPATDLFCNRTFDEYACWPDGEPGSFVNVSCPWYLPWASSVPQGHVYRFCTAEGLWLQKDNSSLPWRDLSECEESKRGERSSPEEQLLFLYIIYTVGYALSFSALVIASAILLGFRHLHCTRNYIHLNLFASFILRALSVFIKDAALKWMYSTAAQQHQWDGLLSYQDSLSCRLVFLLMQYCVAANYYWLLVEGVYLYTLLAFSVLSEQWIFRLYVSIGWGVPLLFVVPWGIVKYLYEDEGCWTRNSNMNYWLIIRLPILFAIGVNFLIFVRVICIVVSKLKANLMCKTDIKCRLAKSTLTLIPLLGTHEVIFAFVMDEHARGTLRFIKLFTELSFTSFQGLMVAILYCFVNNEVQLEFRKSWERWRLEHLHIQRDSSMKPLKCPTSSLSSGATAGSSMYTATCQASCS
T2 sequence (P43220 24-463): as above

CC[C@H](C)[C@H](NC(=O)[C@H](Cc1ccccc1)NC(=O)[C@H](CCC(=O)O)NC(=O)[C@H](CCCCNC(=O)COCCOCCNC(=O)C(C)(C)NC(=O)CC[C@H](NC(=O)CCCCCCCCCCCCCCCCC(=O)O)C(=O)O)NC(=O)[C@H](C)NC(=O)[C@H](C)NC(=O)[C@H](CCC(N)=O)NC(=O)CNC(=O)[C@H](CCC(=O)O)NC(=O)[C@H](CC(C)C)NC(=O)[C@H](Cc1ccc(O)cc1)NC(=O)[C@H](CO)NC(=O)[C@H](CO)NC(=O)[C@@H](NC(=O)[C@H](CC(=O)O)NC(=O)[C@H](CO)NC(=O)[C@@H](NC(=O)[C@H](Cc1ccccc1)NC(=O)[C@@H](NC(=O)CNC(=O)[C@H](CCC(=O)O)NC(=O)C(C)(C)NC(=O)[C@@H](N)Cc1c[nH]cn1)[C@@H](C)O)[C@@H](C)O)C(C)C)C(=O)N[C@@H](C)C(=O)N[C@@H](Cc1c[nH]c2ccccc12)C(=O)N[C@@H](CC(C)C)C(=O)N[C@H](C(=O)N[C@@H](CCCNC(=N)N)C(=O)NCC(=O)N[C@@H](CCCNC(=N)N)C(=O)NCC(=O)N[C@@H](CC(C)C)C(N)=O)C(C)C [SM102]
GLP-1 R binding affinity (GLP-1R [1]): moderate increases
insulin release responses, SM102 vs Semaglutide (INS-1 832/3 cells): virtually indistinguishable
breakup time of tear film (diabetic DES mice; 4-week treatment): significantly prolonged
tear secretion level vs control group (diabetic DES mice; 4 weeks of treatment, phenol red cotton thread): significantly enhanced
increase in number of conjunctival goblet cells vs control mice (diabetic DES mice; SM102 1 nmol/kg, 4 weeks): approximately 1 fold
increase in number of conjunctival goblet cells vs control mice (diabetic DES mice; SM102 3 nmol/kg, 4 weeks): ~4 fold
tear secretion level vs Semaglutide or dulaglutide (diabetic DES mice; SM102 9 nmol/kg, 4 weeks): significantly higher
increase in number of conjunctival goblet cells vs control mice (diabetic DES mice; SM102 9 nmol/kg, 4 weeks): ~5 fold
phosphorylation level of ERK vs model group (diabetic DES mice; [6]): significantly lower
phosphorylation level of JNK vs model group (diabetic DES mice; [6]): significantly lower
phosphorylation level of p38 vs model group (diabetic DES mice; [6]): significantly lower
concentration of MDA vs vehicle group (diabetic DES mice; corneal homogenate, 4 weeks, ELISA): significantly decreased
level of IL-1β vs control mice (diabetic DES mice; [7]): significantly reduced
level of IL-6 vs control mice (diabetic DES mice; [7]): significantly reduced
level of TGF-β1 vs control mice (diabetic DES mice; [7]): increased
level of TNF-α vs control mice (diabetic DES mice; [7]): significantly reduced
SOD activity (diabetic DES mice; dose range 1 ~ 9 nmol/kg, 4 weeks): dose-dependent significant increase
corneal tissue damage (H&E staining) (diabetic DES mice; medium and high dose SM102, 4 weeks): significantly reversed corneal tissue damage
β-arrestin-2 recruitment response potency or Emax (GLP-1R [2]): no differences in response potency or Emax
GLP-1 R endocytosis (GLP-1R [3]): rapid GLP-1 R endocytosis
cAMP signaling potency (GLP-1R [4]; compared to Semaglutide, agonist 30 min at 37°C, serum-free medium, HTRF, n = 5): signaling potency was increased
signaling selectivity in favor of cAMP compared to endocytosis and β-arrestin-2 recruitment (GLP-1R [4]; subtracted pEC50 estimates, SM102 vs Semaglutide, one-way ANOVA with Tukey's test): significant signaling selectivity in favor of cAMP
half-life ([5]; mouse, plasma, sc, single subcutaneous injection, 1 mg/kg, male CD-1 mice): ~47.6 h
GLP-1 R recycling (hGLP-1 R): modestly reduced recycling
glucose-stimulated insulin secretion, SM102 vs Semaglutide, lower doses (mouse pancreatic islets; 1 and 10 nM, data not shown): differences were not apparent
glucose-stimulated insulin secretion (GSIS) (mouse pancreatic islets; islets from C57BL/6 mice, 11 mM glucose, 100 nM agonist, 30 min, no difference between agonists): potentiation of GSIS
improvement in blood glucose and insulin secretion vs Semaglutide 15 nmol/kg (db/db mice; SM102 1 nmol/kg, 4 weeks of treatment): comparable to Semaglutide
therapeutic effect vs Semaglutide 15 nmol/kg (db/db mice; SM102 3 nmol/kg s.c. every other day, 28 days): comparable
therapeutic effect vs Semaglutide 15 nmol/kg: weight loss, glucose, HOMA-IR (db/db mice; SM102 9 nmol/kg s.c. every other day, 28 days): superior

CC[C@H](C)[C@H](NC(=O)[C@H](Cc1ccccc1)NC(=O)[C@H](CCC(=O)O)NC(=O)[C@H](CCCCNC(=O)COCCOCCNC(=O)COCCOCCNC(=O)CC[C@H](NC(=O)CCCCCCCCCCCCCCCCC(=O)O)C(=O)O)NC(=O)[C@H](C)NC(=O)[C@H](C)NC(=O)[C@H](CCC(N)=O)NC(=O)CNC(=O)[C@H](CCC(=O)O)NC(=O)[C@H](CC(C)C)NC(=O)[C@H](Cc1ccc(O)cc1)NC(=O)[C@H](CO)NC(=O)[C@H](CO)NC(=O)[C@@H](NC(=O)[C@H](CC(=O)O)NC(=O)[C@H](CO)NC(=O)[C@@H](NC(=O)[C@H](Cc1ccccc1)NC(=O)[C@@H](NC(=O)CNC(=O)[C@H](CCC(=O)O)NC(=O)C(C)(C)NC(=O)[C@@H](N)Cc1cnc[nH]1)[C@@H](C)O)[C@@H](C)O)C(C)C)C(=O)N[C@@H](C)C(=O)N[C@@H](Cc1c[nH]c2ccccc12)C(=O)N[C@@H](CC(C)C)C(=O)N[C@H](C(=O)N[C@@H](CCCNC(=N)N)C(=O)NCC(=O)N[C@@H](CCCNC(=N)N)C(=O)NCC(=O)O)C(C)C [Semaglutide, reference compound]
Plasma half-life relative to SM-102 ([5]; subcutaneous injection, same dose, CD-1 mice): comparable
